Reference: ChEMBL document CHEMBL1201862, “PubChem BioAssay data set” (2004)
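Grown in 96-well plates, cells were treated for 48 hours with each compound at five concentrations. Insufficient inhibition: endpoint recorded as highest concentration tested. Here, GI50 denotes the concentration required for 50% inhibition of growth.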 Calls of active or inactive are those of the source. No stated cut-off is given here; in the data, active = GI50 up to about 1.1 µM and inactive = higher.

Columns and labels:
Experiment in all cases: growth of human tumour cells (NCI), 48 h
CCRF-CEM = tested on: CCRF-CEM
M19-MEL = tested on: M19-MEL
SNB-75 = tested on: SNB-75
IGROV-1 = tested on: IGROV-1
SF-295 = tested on: SF-295
HCC 2998 = tested on: HCC 2998
SF-268 = tested on: SF-268
CAKI-1 = tested on: CAKI-1
NCI-H460 = tested on: NCI-H460
SW-620 = tested on: SW-620
RXF 393 = tested on: RXF 393
HL-60 = tested on: HL-60
HOP-62 = tested on: HOP-62
M14 = tested on: M14
NCI-H226 = tested on: NCI-H226
T47D = tested on: T47D
DU-145 = tested on: DU-145
MDA-MB-231 = tested on: MDA-MB-231
MDA-MB-435 = tested on: MDA-MB-435
DLD-1 = tested on: DLD-1

| Compound | GI50 (CCRF-CEM) | GI50 (M19-MEL) | GI50 (SNB-75) | GI50 (IGROV-1) | GI50 (SF-295) | GI50 (HCC 2998) | GI50 (SF-268) | GI50 (CAKI-1) | GI50 (NCI-H460) | GI50 (SW-620) | GI50 (RXF 393) | GI50 (HL-60) | GI50 (HOP-62) | GI50 (M14) | GI50 (NCI-H226) | GI50 (T47D) | GI50 (DU-145) | GI50 (MDA-MB-231) | GI50 (MDA-MB-435) | GI50 (DLD-1) |
| --- | --- | --- | --- | --- | --- | --- | --- | --- | --- | --- | --- | --- | --- | --- | --- | --- | --- | --- | --- | --- |
| Oc1ccc2ccccc2c1/N=N/c1ccc(F)cc1 | > 100 µM (inactive) | > 100 µM (inactive) | > 100 µM (inactive) | > 100 µM (inactive) | > 100 µM (inactive) | > 100 µM (inactive) | > 100 µM (inactive) | > 100 µM (inactive) | > 100 µM (inactive) | > 100 µM (inactive) | > 100 µM (inactive) | > 100 µM (inactive) | > 100 µM (inactive) | > 100 µM (inactive) |  |  |  |  |  |  |
| O=C1C(=O)N(c2ccc(Cl)cc2)C(=O)C(=O)C1c1nc2ccccc2s1 |  | > 100 µM (inactive) | > 100 µM (inactive) | 71 µM (inactive) | > 100 µM (inactive) | > 100 µM (inactive) | > 100 µM (inactive) | > 100 µM (inactive) | > 100 µM (inactive) | > 100 µM (inactive) | > 100 µM (inactive) |  | 42.7 µM (inactive) | > 100 µM (inactive) | > 100 µM (inactive) |  |  |  |  |  |
| O=C1c2c(F)c(F)c(F)c(F)c2SC2=NCCN12 | 2.39 µM (inactive) |  | 16 µM (inactive) | 7.19 µM (inactive) | 17.5 µM (inactive) | 14.5 µM (inactive) | 12.8 µM (inactive) | 3.1 µM (inactive) | 6.53 µM (inactive) | 2.38 µM (inactive) | 2.47 µM (inactive) | 2.19 µM (inactive) | 18.1 µM (inactive) | 4.53 µM (inactive) | 16.2 µM (inactive) | 12.5 µM (inactive) | 17.3 µM (inactive) | 8.75 µM (inactive) | 2.85 µM (inactive) |  |
| BrCCCCCOc1ccc(-c2c3ccccc3c(-c3ccc(OCCCCCBr)cc3)c3ccccc23)cc1 | > 100 µM (inactive) |  | 38.5 µM (inactive) | > 100 µM (inactive) | > 100 µM (inactive) | > 100 µM (inactive) | > 100 µM (inactive) | > 100 µM (inactive) | > 100 µM (inactive) | > 100 µM (inactive) | > 100 µM (inactive) | > 100 µM (inactive) | > 100 µM (inactive) | > 100 µM (inactive) | > 100 µM (inactive) | > 100 µM (inactive) | > 100 µM (inactive) | > 100 µM (inactive) | > 100 µM (inactive) |  |
| CC1=C(C(=O)O)N2C(=O)[C@@H](NC(=O)C(c3ccccc3)N3CSC(=S)N(C(C)C)C3)C2SC1 (some centres not stated) | > 100 µM (inactive) | > 100 µM (inactive) | > 100 µM (inactive) | > 100 µM (inactive) | > 100 µM (inactive) |  |  | > 100 µM (inactive) | > 100 µM (inactive) |  |  | > 100 µM (inactive) | > 100 µM (inactive) | > 100 µM (inactive) |  |  |  |  |  | > 100 µM (inactive) |
| CCOC(=O)c1sc(=S)n(-c2ccc(Cl)cc2)c1-n1cc(-c2ccccc2)c(C#N)c1N | 31.8 µM (inactive) |  | 16 µM (inactive) | 15.3 µM (inactive) | 13.3 µM (inactive) | 34.2 µM (inactive) | 2.72 µM (inactive) | > 100 µM (inactive) | 22.3 µM (inactive) | 53 µM (inactive) | 15.4 µM (inactive) | 34.2 µM (inactive) | 3.13 µM (inactive) | 53.1 µM (inactive) | 13.6 µM (inactive) | 13.1 µM (inactive) | 6.81 µM (inactive) | 17.6 µM (inactive) | 41 µM (inactive) |  |
| CC(C)=NOC(=O)CNC(=O)C(Cc1ccccc1)NC(=O)C(C)NC(=O)OC(C)(C)C (configuration not stated) | > 100 µM (inactive) |  | > 100 µM (inactive) | > 100 µM (inactive) | > 100 µM (inactive) | > 100 µM (inactive) | > 100 µM (inactive) | > 100 µM (inactive) | > 100 µM (inactive) | > 100 µM (inactive) | > 100 µM (inactive) | > 100 µM (inactive) | > 100 µM (inactive) | > 100 µM (inactive) | > 100 µM (inactive) | > 100 µM (inactive) | > 100 µM (inactive) | > 100 µM (inactive) | > 100 µM (inactive) |  |
| CNc1nc2c(C)ccc3nc(N(C)C)[nH]c3c-2n1 | 81.8 µM (inactive) |  | 41.8 µM (inactive) | 47.8 µM (inactive) | 55.5 µM (inactive) | 28.2 µM (inactive) | 32.4 µM (inactive) | 65.5 µM (inactive) | 26.2 µM (inactive) | 47.3 µM (inactive) | 25.7 µM (inactive) | 26.9 µM (inactive) | 43.7 µM (inactive) | 25.4 µM (inactive) | 76.7 µM (inactive) | 46.6 µM (inactive) | 42.2 µM (inactive) | 43.6 µM (inactive) | 50.8 µM (inactive) |  |
| Nc1nc(N)c(N=O)c(OCC2CCCCC2)n1 | 5.36 µM (inactive) |  | 5.01 µM (inactive) | 3.23 µM (inactive) | 13 µM (inactive) | 14.9 µM (inactive) | 8.49 µM (inactive) | 7.55 µM (inactive) | 6.17 µM (inactive) | 24 µM (inactive) | 7.1 µM (inactive) | 14.7 µM (inactive) | 14.6 µM (inactive) | 8.47 µM (inactive) | 9.4 µM (inactive) | 5.57 µM (inactive) | 7.45 µM (inactive) | 5.02 µM (inactive) | 14.3 µM (inactive) |  |
| COc1cc2oc3ccccc3c(=O)c2cc1CSc1ccccc1N | 4.94 µM (inactive) |  | 30.8 µM (inactive) | 12 µM (inactive) | 14.2 µM (inactive) | 5.24 µM (inactive) | 41.1 µM (inactive) | 35.9 µM (inactive) | 15.1 µM (inactive) | 6.81 µM (inactive) | 11 µM (inactive) | 3.83 µM (inactive) | 22.8 µM (inactive) | 23.2 µM (inactive) | 73.6 µM (inactive) | 7.85 µM (inactive) | 21.1 µM (inactive) | 27.7 µM (inactive) | 2.47 µM (inactive) |  |
| COC1(OC)N=C(N)C2(C#N)C3(C(=O)N(C(C)C)N=C3C)C12C#N (configuration not stated) | > 100 µM (inactive) |  | > 100 µM (inactive) | > 100 µM (inactive) | > 100 µM (inactive) | > 100 µM (inactive) | > 100 µM (inactive) | > 100 µM (inactive) | > 100 µM (inactive) | > 100 µM (inactive) | > 100 µM (inactive) | > 100 µM (inactive) | > 100 µM (inactive) | > 100 µM (inactive) | > 100 µM (inactive) | > 100 µM (inactive) | > 100 µM (inactive) | > 100 µM (inactive) | > 100 µM (inactive) |  |
| CS(=O)(=O)C(=Cc1ccccc1Cl)S(C)(=O)=O | 25.5 µM (inactive) |  | > 100 µM (inactive) | > 100 µM (inactive) | > 46.5 µM (inactive) | > 100 µM (inactive) | > 100 µM (inactive) | > 100 µM (inactive) | > 100 µM (inactive) | > 66.4 µM (inactive) | > 100 µM (inactive) | 1.14 µM (inactive) | > 100 µM (inactive) | > 80.2 µM (inactive) | > 100 µM (inactive) | > 100 µM (inactive) | > 100 µM (inactive) | > 100 µM (inactive) | > 27.8 µM (inactive) |  |
| Cc1cc(C)nc(NS(=O)(=O)c2ccc(Nc3c4ccccc4nc4c(C(=O)Nc5ccc(S(=O)(=O)N=C(N)N)cc5)cccc34)cc2)n1 | > 100 µM (inactive) | > 100 µM (inactive) | 27.2 µM (inactive) | > 100 µM (inactive) |  | > 100 µM (inactive) | > 100 µM (inactive) | > 100 µM (inactive) | > 100 µM (inactive) | > 100 µM (inactive) | 24.4 µM (inactive) |  | > 100 µM (inactive) | 90.4 µM (inactive) |  |  |  |  |  | > 100 µM (inactive) |
| C=CCc1c(Cl)nc(Cl)nc1Cl | < 0.01 µM (active) |  | 1.08 µM (active) | 0.323 µM (active) | 1.93 µM (inactive) | 0.832 µM (active) | 1.66 µM (inactive) | 0.0176 µM (active) | 0.565 µM (active) | 0.0495 µM (active) | 0.217 µM (active) | > 100 µM (inactive) | 0.515 µM (active) | < 0.0156 µM (active) | 0.0421 µM (active) | 0.313 µM (active) | 2.01 µM (inactive) | 0.561 µM (active) | 0.321 µM (active) |  |
| O=C(O)c1ccc(Nc2cnc3ccc(C(F)(F)F)cc3n2)cc1 | 15.6 µM (inactive) |  | 11.7 µM (inactive) | 12.4 µM (inactive) | 19.6 µM (inactive) | 6.61 µM (inactive) | 31 µM (inactive) | 14.4 µM (inactive) | 28.1 µM (inactive) | 20.9 µM (inactive) | 12.6 µM (inactive) | 5.4 µM (inactive) | 16.1 µM (inactive) | 38.6 µM (inactive) | 14.2 µM (inactive) | 6.07 µM (inactive) | 23.9 µM (inactive) | 19.5 µM (inactive) | 31.6 µM (inactive) |  |
| CC(=O)O[C@H]1C(=O)[C@@]2(C)[C@H]([C@H](OC(=O)c3cccc(C(F)(F)F)c3)[C@]3(O)C[C@H](OC(=O)[C@H](O)[C@@H](NC(=O)c4ccccc4)c4ccccc4)C(C)=C1C3(C)C)[C@]1(OC(C)=O)CO[C@@H]1C[C@@H]2O | < 0.0025 µM (active) |  | 0.00434 µM (active) | 0.00703 µM (active) | 0.0387 µM (active) | 0.0111 µM (active) | 0.223 µM (active) | 0.906 µM (active) | 0.00469 µM (active) | < 0.0025 µM (active) | 0.0222 µM (active) | < 0.0025 µM (active) | 0.0162 µM (active) | 0.00306 µM (active) | 0.00946 µM (active) | 0.00455 µM (active) | 0.00857 µM (active) | 0.0361 µM (active) | < 0.0025 µM (active) |  |
